Measurements from US7199132B2, “Tropane analogs and methods for inhibition of monoamine transport” (Organix, Inc., priority 2001, dated 2007).
Read-outs that look alike come from different tables or passages of the source.

Tests used:
[1] = target: T1, serotonin transporter (Macaca mulatta, UniProt Q9MYX0); test: Serotonin transporter assay: inhibition of {3H}citalopram binding in caudate-putamen membranes; parameters: species or system rhesus or cynomolgus monkey; details: IC50 (nM) SERT, monkey caudate-putamen, mean of 2 or more independent experiments in triplicate
T1 construct: The serotonin transporter was assayed in caudate-putamen membranes using conditions similar to those for the dopamine transporter; from tissue; host or cells: caudate-putamen membranes of cynomolgus or rhesus monkey brain

[2] = target: T2, dopamine transporter (Macaca fascicularis, UniProt Q9GJT6); test: Dopamine transporter assay: inhibition of {3H}WIN 35,428 binding in caudate-putamen membranes; parameters: species or system rhesus or cynomolgus monkey; details: for SERT/DAT: selectivity ratio IC50 SERT / IC50 DAT; for IC50: inhibition of {3H}WIN 35,428 binding, mean of 2 or more independent experiments in triplicate
T2 construct: The caudate-putamen was dissected from coronal slices and yielded 1.4±0.4 g tissue; Membranes were prepared as described previously; from tissue; host or cells: caudate-putamen membranes of cynomolgus or rhesus monkey brain

[3] = IC50 (nM) DAT, monkey caudate-putamen

T1 sequence (Q9MYX0 whole entry): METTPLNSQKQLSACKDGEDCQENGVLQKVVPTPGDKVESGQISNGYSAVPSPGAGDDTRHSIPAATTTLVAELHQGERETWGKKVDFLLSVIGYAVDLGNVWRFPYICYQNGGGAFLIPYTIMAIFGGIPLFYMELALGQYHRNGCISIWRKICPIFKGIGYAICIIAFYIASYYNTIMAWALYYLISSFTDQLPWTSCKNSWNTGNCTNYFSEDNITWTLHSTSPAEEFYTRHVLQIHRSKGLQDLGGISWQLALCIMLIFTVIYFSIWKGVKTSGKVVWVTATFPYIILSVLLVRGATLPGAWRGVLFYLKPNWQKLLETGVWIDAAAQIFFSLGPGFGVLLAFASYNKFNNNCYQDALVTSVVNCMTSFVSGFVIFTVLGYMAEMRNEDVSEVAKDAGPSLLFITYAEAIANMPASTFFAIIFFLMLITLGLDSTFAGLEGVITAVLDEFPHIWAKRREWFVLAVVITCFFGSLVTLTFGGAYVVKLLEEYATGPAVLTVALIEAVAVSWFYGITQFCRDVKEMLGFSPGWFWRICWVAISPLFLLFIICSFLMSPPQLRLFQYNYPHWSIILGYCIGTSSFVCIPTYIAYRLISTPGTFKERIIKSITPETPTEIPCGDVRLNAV
T2 sequence (Q9GJT6 whole entry): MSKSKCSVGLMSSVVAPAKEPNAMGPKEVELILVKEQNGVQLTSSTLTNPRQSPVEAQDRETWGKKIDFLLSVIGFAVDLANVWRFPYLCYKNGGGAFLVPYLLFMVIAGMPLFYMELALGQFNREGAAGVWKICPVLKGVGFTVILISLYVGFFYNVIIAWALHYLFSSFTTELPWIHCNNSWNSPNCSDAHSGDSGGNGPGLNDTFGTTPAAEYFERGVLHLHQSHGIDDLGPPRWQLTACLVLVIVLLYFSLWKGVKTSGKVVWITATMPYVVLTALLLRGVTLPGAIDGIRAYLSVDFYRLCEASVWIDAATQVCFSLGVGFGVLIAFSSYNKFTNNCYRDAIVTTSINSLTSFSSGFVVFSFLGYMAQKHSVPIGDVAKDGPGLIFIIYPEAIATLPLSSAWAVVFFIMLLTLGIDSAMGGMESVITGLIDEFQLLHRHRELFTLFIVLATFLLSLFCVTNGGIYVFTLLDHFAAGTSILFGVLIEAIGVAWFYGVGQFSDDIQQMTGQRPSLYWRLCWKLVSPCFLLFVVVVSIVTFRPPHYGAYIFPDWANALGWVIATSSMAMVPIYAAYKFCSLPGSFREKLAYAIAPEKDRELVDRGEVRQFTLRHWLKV

| SMILES | IC50 [1] [nM] | SERT/DAT [2] | melting point [°C] | IC50 [2, 3] [nM] | further results |
| --- | --- | --- | --- | --- | --- |
| COC(=O)C1=C(c2ccc(Cl)c(Cl)c2)C[C@@H]2C[C@@H](O)[C@H]1N2C [(1S)-8a, (1S)-2-Carbomethoxy-3-(3,4-dichlorophenyl)-7β-hydroxy-8-methyl-8-azabicyclo{3.2.1}oct-2-ene] | 5370 |  |  |  |  |
| COC(=O)[C@H]1[C@@H](c2ccc(Cl)c(Cl)c2)C[C@@H]2CC[C@H]1N2C [Compound 13a, (1R)-3β-(3,4-di-chlorophenyl)-tropane-2β-carboxylic acid methyl ester, reference compound] | 2.47 | 2 |  |  |  |
| COC(=O)[C@@H]1[C@H]2[C@@H](O)C[C@@H](C[C@H]1c1ccc(Cl)c(Cl)c1)N2C (relative stereo) [Compound 30b, 2β-Carbomethoxy-3α-(3,4-dichlorophenyl)-7α-hydroxy-8-methyl-8-azabicyclo{3.2.1}octane] | 991 |  | 121 to 123 |  |  |
| COC(=O)[C@@H]1[C@H]2CC[C@@H](C[C@H]1c1ccc3ccccc3c1)N2C (relative stereo) [Compound 16b, reference compound] |  | 10 |  | 0.57 |  |
| COC(=O)[C@@H]1[C@H]2CC[C@@H](C[C@H]1c1ccc(Cl)c(Cl)c1)N2C [Compound 16a, reference compound] |  | 73 |  |  | IC50 ([2]; monkey caudate-putamen, read-out: IC50 (nM) DAT): 0.38 nM |
| COC(=O)C1=C(c2ccc(F)cc2)CC2C(O)CC1N2C (stereo not drawn) [Compound 7c, 2-Carbomethoxy-3-(4-fluorophenyl)-6β-hydroxy-8-methyl-8-azabicyclo{3.2.1}oct-2-ene] | > 20000 | 1 | 124 to 126 | > 20000 |  |
| COC(=O)[C@@H]1[C@H]2[C@H](O)C[C@@H](C[C@H]1OC(c1ccc(F)cc1)c1ccc(F)cc1)N2C (relative stereo) [Compound 32b, 2β-Carbomethoxy-3α-bis(fluorophenyl)methoxy-7β-hydroxy-8-methyl-8-azabicyclo{3.2.1}octane] | 9560 |  | 150 to 152 |  |  |
| COC(=O)[C@@H]1[C@H]2C(=O)C[C@@H](C[C@H]1c1ccc(Cl)c(Cl)c1)N2C (relative stereo) [Compound 20, 2β-Carbomethoxy-3α-(3,4-dichlorophenyl)-8-methyl-8-azabicyclo{3.2.1}oct-7-one] | 7040 |  | 163.5 to 164.5 | 14.2 |  |
| COC(=O)C1C(c2ccc(Cl)c(Cl)c2)CC2CC(O)C1N2C (single isomer, unassigned) [(1R)-15a] | 139 | 0.05 |  | 265 to 2690 |  |
| COC(=O)C1=C(c2ccc(F)cc2)CC2CCC1N2C (centres unmarked) [Compound 6c, reference compound] | 7990 | 20 |  | 408 |  |
| COC(=O)C1=C(c2ccc3ccccc3c2)CC2CC(O)C1N2C (stereo not drawn) [Compound 8b, 2-Carbomethoxy-3-(2-naphthyl)-7β-hydroxy-8-methyl-8-azabicyclo{3.2.1}oct-2-ene] | 677 | 15 | 164.2 to 165.2 |  |  |
| COC(=O)[C@@H]1[C@H]2C[C@H](O)[C@@H](C[C@H]1c1ccc(F)cc1)N2C (relative stereo) [Compound 17c, 2β-Carbomethoxy-3α-(4-fluorophenyl)-6β-hydroxy-8-methyl-8-azabicyclo{3.2.1}octane] |  | 8 | 148 to 150 |  |  |
| COC(=O)[C@@H]1[C@H]2C[C@H](O)[C@@H](C[C@H]1c1ccc3ccccc3c1)N2C (relative stereo) [Compound 17b, 2β-Carbomethoxy-3α-(2-naphthyl)-6β-hydroxy-8-methyl-8-azabicyclo{3.2.1}octane] | 180 | 6 | 93.5 to 94.5 |  |  |
| COC(=O)C1=C(c2ccc(Cl)c(Cl)c2)CC2CCC1N2C (centres unmarked) [Compound 6a, reference compound] | 867 | 747 |  | 1.16 |  |
| COC(=O)C1C(c2ccccc2)CC2[C@@H](O)CC1N2C (some centres unmarked) [Compound 34] | > 20000 |  |  |  | inhibition of {3H}WIN 35,428 binding, result in words ([2]; monkey caudate-putamen): inactive |
| COC(=O)[C@@H]1[C@H]2C[C@H](O)[C@@H](C[C@H]1c1ccc(Cl)c(Cl)c1)N2C (relative stereo) [Compound 17a, 2β-Carbomethoxy-3α-(3,4-dichlorophenyl)-6β-hydroxy-8-methyl-8-azabicyclo{3.2.1}octane] |  | 238 | 129.1 to 131.1 |  |  |
| COC(=O)C1=C(c2ccc3ccccc3c2)CC2CCC1N2C (centres unmarked) [Compound 6b, reference compound] | 109 | 37 |  | 2.94 |  |
| COC(=O)C1=C(c2ccccc2)C[C@@H]2CC[C@H]1N2C (relative stereo) [Compound 6d, reference compound] | 28600 | 11 |  |  |  |

| SMILES | IC50 [1] [nM] | SERT/DAT [2] | melting point [°C] | IC50 [2, 3] [nM] | further results |
| --- | --- | --- | --- | --- | --- |
| COC(=O)C1C(c2ccc(Cl)c(Cl)c2)CC2CC(O)C1N2C (single isomer, unassigned) [Compound (1S)-18a] |  |  |  | 0.3 to 7.4 | fold more selective (DAT vs SERT) than 16a ([2]; compared with 16a): 22 fold; fold more selective (DAT vs SERT) than (1S)-15a ([2]; compared with (1S)-15a): 32 fold |
| COC(=O)[C@@H]1[C@H]2[C@H](O)C[C@@H](C[C@H]1c1ccc(Cl)c(Cl)c1)N2C (relative stereo) [Compound 18a, 2β-Carbomethoxy-3α-(3,4-dichlorophenyl)-7β-hydroxy-8-methyl-8-azabicyclo{3.2.1}octane] |  |  | 148.5 to 150 |  |  |
| COC(=O)[C@@H]1[C@H]2C[C@H](O)[C@@H](C[C@H]1c1ccccc1)N2C (relative stereo) [Compound 17d, 2β-Carbomethoxy-3α-phenyl-6β-hydroxy-8-methyl-8-azabicyclo{3.2.1}octane] |  | >3 | 138 to 140 |  |  |
| COC(=O)[C@@H]1[C@H]2CC[C@@H](C[C@H]1c1ccc(F)cc1)N2C (relative stereo) [Compound 16c, reference compound] |  | 63 |  |  |  |
| COC(=O)C1C(c2ccc3ccccc3c2)CC2CCC1N2C (centres unmarked) [Compound 13b, reference compound] |  | 5 |  |  |  |
| COC(=O)[C@H]1[C@@H](c2ccccc2)C[C@@H]2CC[C@H]1N2C (relative stereo) [Compound 13d, reference compound] |  |  |  | 65 |  |
| COC(=O)[C@H]1[C@@H](c2ccc(F)cc2)C[C@@H]2CC[C@H]1N2C [Compound 13c, (1R)-3β-(4-fluorophenyl)tropane-2β-carboxylic acid methyl ester, reference compound] | 160 | 15 |  | 11 |  |
| COC(=O)[C@H]1[C@@H](c2ccc(Cl)c(Cl)c2)C[C@@H]2CC(=O)[C@H]1N2C (relative stereo) [Compound 19, 2β-Carbomethoxy-3β-(3,4-dichlorophenyl)-8-methyl-8-azabicyclo{3.2.1}oct-7-one] | 290 |  | 84.4 to 86.4 |  |  |
| COC(=O)[C@@H]1[C@H]2[C@H](O)C[C@@H](C[C@H]1c1ccccc1)N2C (relative stereo) [Compound 18d, 2β-Carbomethoxy-3α-phenyl-7β-hydroxy-8-methyl-8-azabicyclo{3.2.1}octane] |  |  | 165 to 167 |  |  |
| COC(=O)[C@@H]1[C@H]2C[C@H](O)[C@@H](C[C@H]1OC(c1ccc(F)cc1)c1ccc(F)cc1)N2C (relative stereo) [Compound 32a, 2β-Carbomethoxy-3α-bis(4-fluorophenyl)methoxy-6β-hydroxy-8-methyl-8-azabicyclo{3.2.1}octane] | 4850 |  |  |  |  |
| COC(=O)C1=C(c2ccc(Cl)c(Cl)c2)C[C@H]2C[C@H](O)[C@@H]1N2C [(1R)-8a, (1R)-2-Carbomethoxy-3-(3,4-dichlorophenyl)-7β-hydroxy-8-methyl-8-azabicyclo{3.2.1}oct-2-ene] | 1590 |  |  | 265 to 2690 |  |
| COC(=O)C1C(c2ccc(Cl)c(Cl)c2)CC2CC(O)C1N2C (single isomer, unassigned) [Compound (1R)-18a] |  |  |  | 265 to 2690 |  |
| COC(=O)C1C(c2ccc(Cl)c(Cl)c2)CC2CC(O)C1N2C (single isomer, unassigned) [(1S)-15a] | 15 | 50 |  | 0.3 to 7.4 | fold more selective (DAT vs SERT) than 13a ([2]; compared with 13a): 25 fold |
| COC(=O)[C@@H]1[C@H]2C[C@@H](O)[C@@H](C[C@H]1c1ccc(Cl)c(Cl)c1)N2C (relative stereo) [Compound 30a, 2β-Carbomethoxy-3α-(3,4-dichlorophenyl)-6α-hydroxy-8-methyl-8-azabicyclo{3.2.1}octane] | 10700 |  | 161.2 to 162.2 |  |  |
| COC(=O)C1C(c2ccc(Cl)c(Cl)c2)CC2C[C@@H](O)C1N2C (some centres unmarked) [Compound 33] | 533 |  |  |  | potency at the DAT relative to cocaine ([2]; compared with cocaine): almost twice as potent as cocaine |
| COC(=O)C1=C(c2ccc(F)cc2)C[C@@H]2C[C@@H](O)[C@H]1N2C (racemic) [Compound 8c, 2-Carbomethoxy-3-(4-fluorophenyl)-7β-hydroxy-8-methyl-8-azabicyclo{3.2.1}oct-2-ene] | > 10000 | 1 |  |  |  |
| COC(=O)C1=C(c2ccc(Cl)c(Cl)c2)C[C@@H]2C[C@@H](O)[C@H]1N2C (racemic) [Compound 8a, 2-Carbomethoxy-3-(3,4-dichlorophenyl)-7β-hydroxy-8-methyl-8-azabicyclo{3.2.1}oct-2-ene] | > 6000 |  | 130.4 to 132.4 |  |  |
| COC(=O)[C@@H]1[C@H]2[C@H](O)C[C@@H](C[C@@H]1c1ccccc1)N2C (racemic) [Compound 15d, 2β-Carbomethoxy-3β-phenyl-7β-hydroxy-8-methyl-8-azabicyclo{3.2.1}octane] | > 10000 |  | 165.8 to 167.8 |  |  |
